Data set [1] can be described thus: Treatment of a dog with arthritic-related symptoms (Example 7). Conditions: 15-year old dog about 25 kg, commercially-available drug therapy for nine months; some worsening noted. The class given is in vivo. Here is the method: A 15-year old, black Labrador Retriever, mixed-heritage, neutered-male dog weighing about 25 kg has a history of arthritic-related symptoms that makes it difficult, or impossible, for the dog to stand, walk, or ascend or descend stairs. […] Over a subsequent period of six months, this dog is treated with a cyclooxygenase-2 inhibitor in the manner described as follows.
About 125 mg of a 95% pure, selective cyclooxygenase-2 inhibitor in white crystalline powder form is dispersed in a teaspoon of olive oil which is then spread over the surface of a single slice of commercially-available wheat bread. The bread is cut into quarters, all of which is then fed to the dog. The dog is observed to consume the entire slice of bread. Within ten (10) days of initial feeding of this dog, as described above, there is observed noticeable improvement in alleviation of arthritic-related symptoms. For example, the dog is observed to walk easily, descend stairs, […], and be less lethargic in day-to-day activities.

For data set [2] the following is noted: Cynomolgus monkeys, orally for six weeks; cited from earlier work.

Structures are written as SMILES.

For `CC(C(=O)O)c1ccc2c(c1)[nH]c1ccc(Cl)cc12` (centres unmarked) [Rimadyl carprofan], the “improvement in the dog's arthritic-related symptoms” value in data set [1] was “without improvement”.
As for `CN1C(C(=O)Nc2ccccn2)=C(O)c2sc(Cl)cc2S1(=O)=O` [lomoxicam], the Toxicity entry in data set [2] is “monkeys: 1-2 mg/kg/day”.

The values above are taken from patent US20040097549A1, “Method and composition for administering a cyclooxygenase-2 inhibitor” (Pharmacia Corporation, priority 1999, published 2004).
